In doi:10.1101/2025.03.14.643404, “A Bivalent Molecular Glue Linking Lysine Acetyltransferases to Oncogene-induced Cell Death” (bioRxiv, 2025):
Where two headings read alike, the source gives them in different places.

Key:
[1] = tested on: p300^BD-BCL6^BTB; test: TR-FRET ternary assay p300BD-BCL6BTB; type: binding, human
Description: 10 μL reactions containing 10 nM 6x-His- p300^BD or 6x-His-CBP^BD, 200 nM BiotinylatedAvi-BCL6^BTB, 20 nM streptavidin-FITC (SA1001, Thermo), and 1:400 anti-6x-His-terbium (PerkinElmer 61HI2TLF) in buffer containing 20 mM HEPES pH 7.5, 150 mM NaCl, 0.1% BSA, 0.1% NP-40, and 1 mM TCEP were plated in low-volume 384 well plates. Drugs were digitally dispensed (Tecan D300e) into protein-containing wells, and the plate was allowed to incubate in the dark for 1 hour at room temperature. Emission at 490 nm (terbium) and 520 nm (FITC) was measured on a PHERAstar FS plate reader (BMG Labtech) upon excitation with 337 nm. The ratio of signal at 520 nm to 490 nm was calculated and normalized to DMSO-treated protein.

[2] = molecular target: T1, p300^BD (Homo sapiens, UniProt Q09472); test: Isothermal calorimetry, p300BD titrations; type: binding; settings: ITC; for Kd: 25 °C
T1 sequence (Q09472 1049-1156 limits assumed): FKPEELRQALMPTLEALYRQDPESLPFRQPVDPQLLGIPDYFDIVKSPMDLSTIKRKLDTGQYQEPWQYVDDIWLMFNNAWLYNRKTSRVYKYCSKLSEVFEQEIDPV
Description: 12 hours prior to performing ITC, frozen stocks of 6xHis-p300^BD and BCL6^BTB were dialyzed for two hours in ITC buffer at 4°C (50 mM HEPES pH 7.4, 100 μM TCEP, 150 mM NaCl), followed by dialysis in fresh ITC buffer overnight at 4°C to remove glycerol and equalize protein mixtures. Samples were centrifuged at 10,000g for 10 min to remove any precipitate. In all titrations, DMSO was added to protein mixtures to match the DMSO concentration of ligand dissolved in ITC buffer. For binary assays with TCIP3, dialyzed 6xHis-p300^BD or BCL6^BTB were titrated from the syringe into a cell containing TCIP3 dissolved in ITC buffer. For p300 titrations, 50 μM or 25 μM protein was titrated into 5 μM or 2.5 μM, respectively, of TCIP3. For BCL6 titrations, 70 μM or 40 μM protein was titrated into 7 μM or 5 μM, respectively, of TCIP3. For ternary titrations, 20× 6xHis-p300^BD was incubated with 1x TCIP3 in the cell to drive saturation of the binary complex, followed by a titration of 10x BCL6^BTB from the syringe, at 310 rpm stirring at 25°C. The following concentrations were used in each run: 15 μM BCL6^BTB, 30 μM p300, and 1.5 μM TCIP3; 18 μM BCL6 ^BTB, 36 μM 6xHis-p300^BD, and 1.8 μM TCIP3; or 10 μM BCL6 ^BTB, 20 μM 6xHis-p300^BD, and 1 μM TCIP3. Alternatively, 20x BCL6^BTB was incubated with 1x TCIP3 in the cell to drive saturation of the binary complex, followed by a titration of 10× 6xHis-p300^BD from the syringe, at 310 rpm stirring at 25°C. The following concentrations were used in each run: 30 μM BCL6, 15 μM 6xHis-p300^BD, and 1.5 μM TCIP3; 20 μM BCL6 ^BTB, 10 μM 6xHis-p300^BD, and 1 μM TCIP3; or 40 μM BCL6 ^BTB, 20 μM 6xHis-p300^BD, and 2 μM TCIP3. The first one or two injections and outliers from instrument noise were routinely excluded. Data were fit to a one-site model using MicroCal LLC Origin software. The following injection parameters were used for each run: (Total injection number: 35; Cell temp: 25 °C; Ref power: 10; Initial delay: 250 s; stirring speed: 310; Feedback mode: High; volume: 8 μL; Duration: 13.7 s; Filter period: 2; initial injection volume: 2 μL).

SMILES: CNC(=O)COc1cc2cc(Nc3nc(N4CCC(C(=O)N5CCN(CCC(=O)N6CCC(n7nc(N8CCCc9cc(-c%10cnn(C)c%10)c(C(F)F)cc98)c8c7CCN(C(=O)NC)C8)CC6)CC5)CC4)ncc3Cl)cc(OC)c2n(C)c1=O [TCIP3]
- TR-FRET signal AUC, times higher than NEG1 [1]: 23 times
- TR-FRET signal AUC, times higher than NEG2 [1]: 18 times
- Kd ([2]; p300BD titrated into BCL6BTB-saturated TCIP3, read-out: Kd, p300 into BCL6:TCIP3 (ternary)): 2.37 nM
- Kd ([2]; p300BD titrated into TCIP3, read-out: Kd, binary p300:TCIP3): 8.28 nM
- α p300 into BCL6:TCIP3 ([2]; α = Kd binary/Kd ternary): 3.5
